The source of these data is ChEMBL document CHEMBL3085760, “Novel polyamine analogues: from substrates towards potential inhibitors of monoamine oxidases” (Eur J Med Chem, 2013).

SMILES strings stand for the structures. Calls of active or inactive are those of the source. The rule behind the calls is not given here.

Test [1] has as its target T1, Amine oxidase [copper-containing] 3 (Homo sapiens) (UniProt Q16853).
T1 sequence (whole entry): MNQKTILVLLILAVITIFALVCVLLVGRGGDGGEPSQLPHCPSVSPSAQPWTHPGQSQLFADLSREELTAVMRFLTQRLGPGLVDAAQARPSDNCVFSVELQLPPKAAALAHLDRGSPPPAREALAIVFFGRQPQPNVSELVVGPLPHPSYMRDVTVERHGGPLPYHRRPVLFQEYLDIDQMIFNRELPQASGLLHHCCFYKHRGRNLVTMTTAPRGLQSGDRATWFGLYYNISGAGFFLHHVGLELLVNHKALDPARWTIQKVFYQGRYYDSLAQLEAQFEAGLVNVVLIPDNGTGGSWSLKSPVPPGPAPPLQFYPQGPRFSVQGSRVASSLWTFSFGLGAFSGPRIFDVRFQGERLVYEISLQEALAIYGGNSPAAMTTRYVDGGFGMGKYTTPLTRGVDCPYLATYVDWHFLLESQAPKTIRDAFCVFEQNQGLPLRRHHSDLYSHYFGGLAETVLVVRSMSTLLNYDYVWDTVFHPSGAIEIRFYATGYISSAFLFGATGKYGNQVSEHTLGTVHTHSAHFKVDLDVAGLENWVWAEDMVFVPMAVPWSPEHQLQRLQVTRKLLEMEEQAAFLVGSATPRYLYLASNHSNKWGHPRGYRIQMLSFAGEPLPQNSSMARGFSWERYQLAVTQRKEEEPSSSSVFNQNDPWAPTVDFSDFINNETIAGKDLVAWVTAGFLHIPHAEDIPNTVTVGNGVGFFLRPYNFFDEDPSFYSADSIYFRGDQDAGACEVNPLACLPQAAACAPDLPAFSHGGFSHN
In words: Ratio of relative Vmax to Km for recombinant human VAP-1 assessed as hydrogen peroxide generation rate preincubated for 30 mins by Amplex Red assay relative to control.

Test [2] has as its target T1, Amine oxidase [copper-containing] 3 (Homo sapiens). The test can be described thus: Activity at recombinant human VAP-1 assessed as hydrogen peroxide generation rate per min/mg preincubated for 30 mins by Amplex Red assay relative to control.
For test [3] the target is unchanged. In words: Ratio of relative Vmax to Km for recombinant human VAP-1 assessed as hydrogen peroxide generation rate using benzylamine as substrate at 200 uM preincubated for 30 mins by Amplex Red assay.
Test [4] shares this target. The test can be described thus: Activity at recombinant human VAP-1 assessed as hydrogen peroxide generation rate per min/mg using benzylamine as substrate at 200 uM preincubated for 30 mins by Amplex Red assay relative to control.
For test [5] the target is unchanged. In words: Activity at recombinant human VAP-1 assessed as hydrogen peroxide generation rate preincubated for 30 mins by Amplex Red assay.
For test [6], the species on record is Homo sapiens. The test can be described thus: Selectivity ratio of Ki for recombinant human MAO-B to Ki for recombinant human MAO-A.
Test [7] is filed under the species Homo sapiens. In words: Selectivity ratio of Ki for recombinant human MAO-A to Ki for recombinant human MAO-B.

Regarding `NCCCCCCCCCCCCNCc1cccs1`, the results for the fold change (FC) in test [1] and in test [2] were 35 and 1.77, respectively.
As to `NCCCOCCCCOCCCNCc1cccs1`, the fold change (FC) in test [1] amounted to 0.87; in test [2] it was 0.71.
Consider `NCCCNCCCCNCCCNCc1ccc2ccccc2c1`, for which the fold change (FC) stood at 0.97 in test [3] and 1.12 in test [4]. Moreover, in test [5], the outcome was inactive.
On to `NCCCNCCCCNCCCN`, for which the fold change (FC) in test [3] was 0.96; in test [4], 1.
For the compound `CN(CCCCCCCCCCCCN)Cc1ccccc1`, the results for the fold change (FC) in test [1] and in test [2] were 30 and 0.73, respectively.
For the compound `NCCCCCCCCCCCCNCc1ccccc1`, the fold change (FC) in test [1] was 80; in test [2], 1.88.
Regarding `NCCCNCCCCNCCCNCc1ccccc1`, the Ratio Ki in the test listed under Homo sapiens [6] was 1.7. Besides, the fold change (FC) came to 0.66 in test [3] and 0.77 in test [4].
In the case of `c1ccc(CNCCCCCCCCCCCCNCc2ccccc2)cc1`, the fold change (FC) in test [3] was 0.35; in test [4] it was 0.89.
Consider `NCCCNCCCCNCCCNCc1cccs1`, for which the fold change (FC) worked out at 0.6 in test [3] and 1 in test [4]. Also, the result in test [5] was inactive. For the same compound, the Ratio Ki in the test filed under Homo sapiens [7] stood at 9.8.
For `NCCCNCCCCNCCCNCc1cccnc1`, the figures for the fold change (FC) in test [3] and in test [4] were 0.69 and 0.85, respectively. For the same compound, in test [5], the result was inactive.
As to `CN(CCCCCCCCCCCCN=C=S)Cc1ccccc1`, the Ratio Ki in the test filed under Homo sapiens [6] is 1.8. Also, the fold change (FC) in test [3] is 0.66; in test [4], 0.69.
Consider `NCCCCCCCCNCCCNCc1cccs1`, for which the figures for the fold change (FC) in test [1] and in test [2] were 0.09 and 0.38, respectively.
